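Tested at 5 concentrations; 48 h exposure; 96-well plates; endpoints linearly interpolated, else capped at highest concentration. GI50 = concentration required for 50% inhibition of growth. TGI: concentration producing complete growth inhibition.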
Tests used:
Assay in all cases: NCI-60 cell line screen, 48 h
[1] = tested on: MOLT-4 leukemia
[2] = tested on: MDA-MB-435
[3] = tested on: UO-31 renal
[4] = tested on: NCI-H23 lung
[5] = tested on: EKVX NSCLC
[6] = tested on: OVCAR-5 ovarian
[7] = tested on: U251 CNS
[8] = tested on: HCC-2998 colon
[9] = tested on: BT-549 breast
[10] = tested on: NCI-H226 lung
[11] = tested on: UACC-62 melanoma
[12] = tested on: OVCAR-8 ovarian
[13] = tested on: HL-60(TB) leukemia
[14] = tested on: SK-MEL-2 melanoma
[15] = tested on: A498 renal
[16] = tested on: MCF7 breast
[17] = tested on: SR leukemia
[18] = tested on: HT29 colon
[19] = tested on: 786-0 renal
[20] = tested on: SF-268 CNS
[21] = tested on: SNB-75 CNS
[22] = tested on: SK-MEL-5 melanoma
[23] = tested on: OVCAR-4 ovarian
[24] = tested on: CCRF-CEM leukemia
[25] = tested on: RPMI-8226 leukemia
[26] = tested on: HOP-92 NSCLC
[27] = tested on: LOX IMVI melanoma
[28] = tested on: RXF 393 renal
[29] = tested on: MDA-MB-231 breast
[30] = tested on: SNB-19 CNS
[31] = tested on: MALME-3M melanoma
[32] = tested on: SF-295 CNS
[33] = tested on: SW-620 colon
[34] = tested on: SF-539 CNS
[35] = tested on: UACC-257 melanoma
[36] = tested on: K-562 leukemia
[37] = tested on: TK-10 renal
[38] = tested on: NCI/ADR-RES ovarian
[39] = tested on: IGROV1 ovarian
[40] = tested on: NCI-H460 lung
[41] = tested on: A549 NSCLC
[42] = tested on: KM12 colon
[43] = tested on: SN12C renal
[44] = tested on: M14 melanoma
[45] = tested on: HCT-15 colon
[46] = tested on: NCI-H522 lung
[47] = tested on: OVCAR-3 ovarian
[48] = tested on: HCT-116 colon
[49] = tested on: T-47D breast
[50] = tested on: DU-145 prostate
[51] = tested on: HOP-62 NSCLC
[52] = tested on: SK-MEL-28 melanoma
[53] = tested on: SK-OV-3 ovarian
[54] = tested on: PC-3 prostate
[55] = tested on: HS 578T breast

C[C@@]1(c2ncncc2F)NC(=O)c2cc(-c3cn[nH]c3)ccc21
GI50 [1]: 26.5 µM | TGI [1]: > 100 µM | GI50 [2]: 19.9 µM | TGI [2]: > 100 µM | GI50 [3]: 17.2 µM | TGI [3]: 72.8 µM | GI50 [4]: 18.7 µM | TGI [4]: > 100 µM | GI50 [5]: 22.1 µM | TGI [5]: > 100 µM | GI50 [6]: 22.4 µM | TGI [6]: 99 µM | GI50 [7]: 29.4 µM | TGI [7]: > 100 µM | GI50 [8]: 22.9 µM | TGI [8]: > 100 µM | GI50 [9]: 11.8 µM | TGI [9]: 49.3 µM | GI50 [10]: 20.1 µM | TGI [10]: > 100 µM | GI50 [11]: 18.8 µM | TGI [11]: 70.6 µM | GI50 [12]: 26.9 µM | TGI [12]: > 100 µM | GI50 [13]: 15.8 µM | TGI [13]: 60.4 µM | GI50 [14]: 23.8 µM | TGI [14]: 68.2 µM | GI50 [15]: 14.4 µM | TGI [15]: 50.5 µM | GI50 [16]: 21 µM | TGI [16]: > 100 µM | GI50 [17]: 15.6 µM | TGI [17]: > 100 µM | GI50 [18]: 7.46 µM | TGI [18]: 90.9 µM | GI50 [19]: 23.6 µM | TGI [19]: 91.1 µM | GI50 [20]: 28.4 µM | TGI [20]: > 100 µM | GI50 [21]: 4.45 µM | TGI [21]: 40.3 µM | GI50 [22]: 20 µM | TGI [22]: > 100 µM | GI50 [23]: 38.5 µM | TGI [23]: > 100 µM | GI50 [24]: 42.3 µM | TGI [24]: > 100 µM | GI50 [25]: 31 µM | TGI [25]: 95.2 µM | GI50 [26]: 22.6 µM | TGI [26]: 88.5 µM | GI50 [27]: 8.23 µM | TGI [27]: > 100 µM | GI50 [28]: 15.2 µM | TGI [28]: 37.3 µM | GI50 [29]: 27.6 µM | TGI [29]: 89.5 µM | GI50 [30]: 31.9 µM | TGI [30]: > 100 µM | GI50 [31]: 12.9 µM | TGI [31]: 68.4 µM | GI50 [32]: 29.4 µM | TGI [32]: > 100 µM | GI50 [33]: 6.79 µM | TGI [33]: > 100 µM | GI50 [34]: 5.61 µM | TGI [34]: 32.7 µM | GI50 [35]: 30.3 µM | TGI [35]: 98.7 µM | GI50 [36]: 46.8 µM | TGI [36]: > 100 µM | GI50 [37]: 10.9 µM | TGI [37]: 58.3 µM | GI50 [38]: 37.9 µM | TGI [38]: > 100 µM | GI50 [39]: 21.4 µM | TGI [39]: > 100 µM | GI50 [40]: 25 µM | TGI [40]: > 100 µM | GI50 [41]: 28.2 µM | TGI [41]: > 100 µM | GI50 [42]: 29.6 µM | TGI [42]: > 100 µM | GI50 [43]: 26.5 µM | TGI [43]: > 100 µM | GI50 [44]: 15.2 µM | TGI [44]: 77.7 µM | GI50 [45]: 20.8 µM | TGI [45]: > 100 µM | GI50 [46]: 13.1 µM | TGI [46]: > 100 µM | GI50 [47]: 21.9 µM | TGI [47]: > 100 µM | GI50 [48]: 5.48 µM | TGI [48]: > 100 µM | GI50 [49]: 27.9 µM | TGI [49]: > 100 µM | GI50 [50]: 28.8 µM | TGI [50]: > 100 µM | GI50 [51]: 18.7 µM | TGI [51]: > 100 µM | GI50 [52]: 11.7 µM | TGI [52]: 73.4 µM | GI50 [53]: 18.5 µM | TGI [53]: 76 µM | GI50 [54]: 27.2 µM | TGI [54]: > 100 µM | GI50 [55]: 23 µM | TGI [55]: > 100 µM

From PubChem BioAssay (NCI)
